ChEMBL document CHEMBL5352394, “Development of fluorizoline analogues as prohibitin ligands that modulate C-RAF signaling, p21 expression and melanogenesis” (Eur J Med Chem, 2022)
Calls of active or inactive are those of the source. The calls are words filed in the database; no cut-off is given here.

Experiments:
HeLa = assay: Cytotoxicity against human HeLa cells assessed as reduction in cell viability measured after 24 hrs by MTT assay; assay type: functional, cell-based; settings: dose 1.25-10 µM
HBL = assay: Induction of pigmentation in human HBL cells assessed as melanogenesis at 0.1 to 10 uM by microscopic analysis; assay type: functional, cell-based; settings: dose 0.1-10 µM
[1] = target: RAF proto-oncogene serine/threonine-protein kinase (Homo sapiens) (UniProt P04049); assay: Inhibition of C-RAF phosphorylation at Ser 338 residue in human HeLa cells at 10 uM preincubated with compound for 1 hr and followed by EGF stimulation for 30 mins by Western blot analysis; assay type: cell-based
Sequence of RAF proto-oncogene serine/threonine-protein kinase (Homo sapiens) (P04049 whole entry): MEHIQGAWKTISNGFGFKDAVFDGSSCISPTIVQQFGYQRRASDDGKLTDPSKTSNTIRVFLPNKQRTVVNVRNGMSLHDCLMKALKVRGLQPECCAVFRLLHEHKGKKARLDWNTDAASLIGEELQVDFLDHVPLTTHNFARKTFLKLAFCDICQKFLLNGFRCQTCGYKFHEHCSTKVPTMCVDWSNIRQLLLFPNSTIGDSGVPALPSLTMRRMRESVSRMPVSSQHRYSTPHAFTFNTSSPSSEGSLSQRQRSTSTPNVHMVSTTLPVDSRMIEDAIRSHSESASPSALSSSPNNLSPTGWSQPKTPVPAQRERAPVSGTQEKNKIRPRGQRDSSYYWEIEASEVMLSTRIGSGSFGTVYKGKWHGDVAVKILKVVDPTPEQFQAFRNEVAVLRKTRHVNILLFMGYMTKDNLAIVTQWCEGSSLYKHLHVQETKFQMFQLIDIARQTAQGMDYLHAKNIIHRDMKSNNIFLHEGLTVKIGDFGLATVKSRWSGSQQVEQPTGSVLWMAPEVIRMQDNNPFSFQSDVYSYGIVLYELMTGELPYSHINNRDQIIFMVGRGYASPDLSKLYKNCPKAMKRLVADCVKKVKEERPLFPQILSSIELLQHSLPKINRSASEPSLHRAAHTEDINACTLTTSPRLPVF

[2] = target: Dual specificity mitogen-activated protein kinase kinase 1 (Homo sapiens) (UniProt Q02750); assay: Inhibition of MEK1 phosphorylation in human HeLa cells at 10 uM preincubated for 1 hr and followed by EGF stimulation for 30 mins by Western blot analysis; assay type: cell-based
Sequence of Dual specificity mitogen-activated protein kinase kinase 1 (Homo sapiens) (Q02750 whole entry): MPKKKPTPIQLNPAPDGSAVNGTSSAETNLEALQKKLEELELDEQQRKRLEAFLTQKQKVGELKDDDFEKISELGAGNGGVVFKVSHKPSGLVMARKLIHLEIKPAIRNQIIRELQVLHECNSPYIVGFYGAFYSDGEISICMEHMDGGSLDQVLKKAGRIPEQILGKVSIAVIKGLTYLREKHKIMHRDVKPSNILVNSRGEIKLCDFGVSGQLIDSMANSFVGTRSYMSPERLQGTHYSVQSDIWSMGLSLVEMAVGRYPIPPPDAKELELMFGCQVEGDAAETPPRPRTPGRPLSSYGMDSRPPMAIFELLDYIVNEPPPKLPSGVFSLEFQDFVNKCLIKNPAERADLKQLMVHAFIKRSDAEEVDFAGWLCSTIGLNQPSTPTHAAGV

MCF7 [3] = assay: Upregulation of p21 expression in human MCF7 cells at 1 uM incubated for 72 hrs by Western blot analysis; assay type: functional, cell-based
MCF7 [4] = assay: Antiproliferative activity against human MCF7 cells assessed as reduction in cell viability at 1 uM incubated for 72 hrs by trypan blue exclusion assay; assay type: functional, cell-based
MCF7 [5] = assay: Antiproliferative activity against human MCF7 cells transfected with p21 siRNA assessed as reduction in cell viability at 1 uM incubated for 48 hrs by tryphan blue dye exclusion analysis; assay type: functional, cell-based

inhibition [1] | inhibition [2] | Structure (SMILES) | Activity (HeLa) | Activity (HBL) | Activity (MCF7 [3]) | Activity (MCF7 [4]) | Activity (MCF7 [5])
Active | – | O=C(c1ccccc1)c1ccc(C2=NC(F)(F)C(F)(c3ccc(Cl)cc3)S2)cc1 (stereo not drawn) | – | Active | – | – | –
inactive | inactive | Cc1ccc(C2(F)SC(c3ccccc3)=NC2(F)F)cc1 (stereo not drawn) | Dose-Dependent Effect | Active | – | – | inactive
Active | Active | Cc1ccc(C2(F)SC(c3ccc(Cl)cc3)=NC2(F)F)cc1 (stereo not drawn) | Dose-Dependent Effect | Active | – | – | –
Active | – | FC1(F)N=C(c2ccc(Br)cc2)SC1(F)c1ccc(Cl)cc1 (stereo not drawn) | Dose-Dependent Effect | Active | Active | Active | –

The next lines start with the molecule.

Structure (SMILES) | inhibition [1] | inhibition [2] | Activity (HeLa) | Activity (HBL) | Activity (MCF7 [3]) | Activity (MCF7 [4]) | Activity (MCF7 [5])
FC1(F)N=C(c2ccc(Cl)cc2)SC1(F)c1ccc(Cl)cc1 (stereo not drawn) | – | – | Dose-Dependent Effect | Active | – | – | –
FC1(F)N=C(c2ccc(Cl)cn2)SC1(F)c1ccc(Cl)cc1 (stereo not drawn) | Active | inactive | Dose-Dependent Effect | Active | – | – | –
FC1(F)N=C(c2cnccn2)SC1(F)c1ccc(Cl)cc1 (stereo not drawn) | inactive | inactive | – | Active | Active | Active | inactive
CC1(F)N=C(c2ccc(Cl)cc2)SC1(F)c1ccc(Cl)cc1 (stereo not drawn) | inactive | Active | – | – | – | – | –
FC1(F)SC(c2ccc(Cl)cc2)=NC1(F)c1ccc(Cl)cc1 (stereo not drawn) | inactive | inactive | – | Active | inactive | inactive | –
FC1(F)N=C(c2ncccn2)SC1(F)c1ccc(Cl)cc1 (stereo not drawn) | Active | Active | – | Active | – | – | –
FC1(F)N=C(c2ccccn2)SC1(F)c1ccccc1 (stereo not drawn) | Active | – | – | Active | – | – | –
FC1(F)N=C(c2ccccn2)SC1(F)c1ccc(Cl)cc1 (stereo not drawn) | Active | Active | – | Active | – | – | –
